Laboratory results from patent US11467159B2, “Luminescent phospholipid analogs for the identification and isolation of circulating tumor cells” (CELLECTAR BIOSCIENCES, INC., priority 2016, dated 2022).

Experiments:
[1] = tested on: xenograft and spontaneous tumor models; details: over 55 xenograft and spontaneous tumor models; cited from earlier work
[2] = tested on: CD14+ monocytes/macrophages; experiment: Flow cytometry uptake of CLR1501 in CD14+ cells of patient blood (FIG. 1); assay type: cell-based, human
Excerpt: FIG. 1. […] Upper left quadrant indicates CD14−/CLR1501+ cells, upper right indicates CD14+/CLR1501+, bottom right indicates CD14+/CLR1501−, and bottom left indicates CD14−/CLR1501.
Whole blood was collected in either Cell Save® collection tubes or ethylenediaminetetraacetic acid (“EDTA”) collection tubes from seven cancer patients with lung (patients 101 and 103), thyroid (patient 102), breast (patient 106), cervical (patient 104), squamous cell carcinoma (107), and colorectal (patient 108) cancer prior to (draw 1) and after (draw 2) therapy, when available. Mononuclear cells were isolated from the whole blood using a Ficoll-Paque density gradient. Cells from each patient were then incubated with an Fc blocker. The cells were then stained with fluorescently-tagged antibodies to CD45, CD14, CD34, EpCAM, and pan-Cytokeratin (CK), and a fluorescent PLE analog (“CLR1501”) for 30 minutes. Cells were then analyzed by flow cytometry to indicate the number of cells from each whole blood sample that were positive and/or negative for a particular marker. According to the current definition, CTCs were identified as live cells that were CD45−, CD14−, CD34−, CK+, and EpCAM+ (“by definition”). Due to prior experience with CD14+ monocytes/macrophages (FIG. 1), CD14+ cells were removed from the analyses due to high uptake of CLR1501. CD34+ normal […] cells were also removed from the analyses. […]

circulating tumor cells = experiment: Flow cytometry identification and enumeration of circulating tumor cells in mononuclear cells from cancer patients' whole blood stained with CLR1501; assay type: cell-based, human; details: for CK−/EpCAM−/CLR1501+ cells (number): CD45−, CD14−, CD34−, nucleated
Excerpt: (§1) Whole blood was collected in either Cell Save® collection tubes or ethylenediaminetetraacetic acid (“EDTA”) collection tubes from seven cancer patients with lung (patients 101 and 103), thyroid (patient 102), breast (patient 106), cervical (patient 104), squamous cell carcinoma (107), and colorectal (patient 108) cancer prior to (draw 1) and after (draw 2) therapy, when available. Mononuclear cells were isolated from the whole blood using a Ficoll-Paque density gradient. Cells from each patient were then incubated with an Fc blocker. The cells were then stained with fluorescently-tagged antibodies to CD45, CD14, CD34, EpCAM, and pan-Cytokeratin (CK), and a fluorescent PLE analog (“CLR1501”) for 30 minutes. Cells were then analyzed by flow cytometry to indicate the number of cells from each whole blood sample that were positive and/or negative for a particular marker. According to the current definition, CTCs were identified as live cells that were CD45−, CD14−, CD34−, CK+, and EpCAM+ (“by definition”). Due to prior experience with CD14+ monocytes/macrophages (FIG. 1), CD14+ cells were removed from the analyses due to high uptake of CLR1501. CD34+ normal […] cells were also removed from the analyses.
The first row of Tables 1 and 2 depicts the number of cells from each patient's blood draw that fulfilled the definition of a CTC: CD45−, CD14−, CD34−, CK+, and EpCAM+, and contained a nucleus. The second row depicts the number of cells from each patient's blood draw that were CD45−, CD14−, CD34−, CK+, and contained a nucleus. The third row depicts the number of cells from each patient's blood draw that were CLR 1501+, CD45−, CD14−, CD34−, CK+, and contained a nucleus. The fourth row depicts the number of cells from each patient's blood draw that were CD45−, CD14−, CD34−, and EpCAM+ and contained a nucleus. The fifth row depicts the number of cells from each patient's blood draw that were CLR 1501+, CD45−, CD14−, CD34−, and EpCAM+ and contained a nucleus. The sixth row depicts the number of cells from each patient's blood draw that were CLR 1501+, CD45−, CD14−, CD34−, CK−, and EpCAM−, and contained a nucleus.

CD45+ and CD34+ cells = experiment: Flow cytometry uptake of CLR1501 in remaining CD45+ and CD34+ cells of patient blood; assay type: cell-based, human; details: same patient, in comparison with CD14+ cells
Excerpt: as §1

In the case of `C[N+](C)(C)CCOP(=O)([O-])OCCCCCCCCCCCCCCCCCCc1ccc(I)cc1` [CLR1404], the “uptake and retention in tumors” value [1] is given as “selective uptake and prolonged retention in tumors”.

For `C[N+](C)(C)CCOP(=O)([O-])OCCCCCCCCCCCCCCCCCCc1ccc(C2=C3C=CC=[N+]3[B-](F)(F)n3cccc32)cc1` [CLR1501], the “uptake of CLR1501 in CD14+ cells” value ([2]; CD14+ monocytes/macrophages, FIG. 1) was “high uptake”, the “cells positive for CD14+ that are also positive for CLR1501” value ([2]; CD45−, CD34− cells from patient 108 (colorectal cancer), FIG. 1 panel B) was 99.7% and the “CK−/EpCAM−/CLR1501+ cells (number)” value (circulating tumor cells; Cell Save tube, patient 101 draw 1, lung cancer) was 1.4 M. For the same molecule, the “CK−/EpCAM−/CLR1501+ cells (number)” value (circulating tumor cells; Cell Save tube, patient 101 draw 2, lung cancer) was 121,696 cells, the “CK−/EpCAM−/CLR1501+ cells (number)” value (circulating tumor cells; Cell Save tube, patient 102 draw 1, thyroid cancer) was 6.7 M and the “CK−/EpCAM−/CLR1501+ cells (number)” value (circulating tumor cells; Cell Save tube, patient 102 draw 2, thyroid cancer) was 7.9 M. The “CK−/EpCAM−/CLR1501+ cells (number)” value (circulating tumor cells; Cell Save tube, patient 103, lung cancer) was 5.3 M, the “CK−/EpCAM−/CLR1501+ cells (number)” value (circulating tumor cells; Cell Save tube, patient 104 draw 1, cervical cancer) was 1.3 M and the “CK−/EpCAM−/CLR1501+ cells (number)” value (circulating tumor cells; Cell Save tube, patient 106, breast cancer) was 278 cells. For the same molecule, the “CK−/EpCAM−/CLR1501+ cells (number)” value (circulating tumor cells; Cell Save tube, patient 107, carcinoma) was 611,622 cells, the “CK−/EpCAM−/CLR1501+ cells (number)” value (circulating tumor cells; Cell Save tube, patient 108 draw 1, colorectal cancer) was 1,062 cells and the “CK−/EpCAM−/CLR1501+ cells (number)” value (circulating tumor cells; Cell Save tube, patient 108 draw 2, colorectal cancer) was 1.1 M. For the same molecule, the “CK−/EpCAM−/CLR1501+ cells (number)” value (circulating tumor cells; EDTA tube, patient 101 draw 1, lung cancer) was 1.8 M, the “CK−/EpCAM−/CLR1501+ cells (number)” value (circulating tumor cells; EDTA tube, patient 101 draw 2, lung cancer) was 30,222 cells and the “CK−/EpCAM−/CLR1501+ cells (number)” value (circulating tumor cells; EDTA tube, patient 102 draw 1, thyroid cancer) was 1.5 M. For the same molecule, the “CK−/EpCAM−/CLR1501+ cells (number)” value (circulating tumor cells; EDTA tube, patient 102 draw 2, thyroid cancer) was 10.9 M, the “CK−/EpCAM−/CLR1501+ cells (number)” value (circulating tumor cells; EDTA tube, patient 103, lung cancer) was 2.5 M and the “CK−/EpCAM−/CLR1501+ cells (number)” value (circulating tumor cells; EDTA tube, patient 104, cervical cancer) was 4.0 M. The “CK−/EpCAM−/CLR1501+ cells (number)” value (circulating tumor cells; EDTA tube, patient 106, breast cancer) was 19,585 cells, the “CK−/EpCAM−/CLR1501+ cells (number)” value (circulating tumor cells; EDTA tube, patient 107, carcinoma) was 147,641 cells and the “CK−/EpCAM−/CLR1501+ cells (number)” value (circulating tumor cells; EDTA tube, patient 108 draw 1, colorectal cancer) was 29,584 cells. For the same molecule, the “CK−/EpCAM−/CLR1501+ cells (number)” value (circulating tumor cells; EDTA tube, patient 108 draw 2, colorectal cancer) was 753,387 cells, the “CK+ cells identified by CLR 1501” value (circulating tumor cells; all cancer types, either blood collection tube, listed as 2 vs row 3 of Table 1 or 2) was 99-100% and the “EpCAM+ cells identified by CLR 1501” value (circulating tumor cells; all cancer types, either blood collection tube, listed as 4 vs row 5 of Table 1 or 2) was 35-100%. The “uptake of CLR1501 by CTCs (by definition)” value (circulating tumor cells; all seven patient samples) was “positive uptake” and the “uptake of CLR1501 by remaining CD45+ and CD34+ cells” value (CD45+ and CD34+ cells) was “not take up CLR1501 to a large extent”.
